Measurements published in patent US8338480B2, “Combination treatment of metabolic disorders” (Wellstat Therapeutics Corporation, priority 2006, dated 2012).
Counter-ions that a name gives are not always drawn.

What was measured:
Format in all cases: in vivo
Male C57B1/6 mice = experiment: Food intake and body weight of male C57Bl/6 mice under restricted feeding (Example 3); conditions: for Post-treatment Food Intake (5 Hour): 5 hour meal; for food intake (in words): restricted feeding paradigm; for Change in Body weight % / Change in Body weight (grams ± SEM) / Post-treatment Body weight: restricted feeding
Procedure: Animals. […] Food was withheld for the remainder of each day. Because of the restricted feeding time, the mice eat less than under ad libitum food availability. Therefore, reduction of food intake in this model requires a drug effect sufficient to overcome the hunger stimulus provided by subnormal daily food intake. Drug Administration. Groups of 10 mice each (individually weighed and marked, divided into 5/cage and trained and monitored as above; were dosed once per day with Compound BI (100 mg/kg), rosiglitazone (3 mg/kg), both drugs, or vehicle by oral gavage at 8 AM for four consecutive days. Comparator groups receiving appetite modulators not suitable for oral dosing (PYY and cerulenin) received intraperitoneal injections at 8 AM for four consecutive days. […] [table]

Adiponectin = experiment: Serum adiponectin in db/db mice after two weeks (Example 4); conditions: for Adiponectin ± SD: db/db mice serum, compound alone 100 mg/kg; for effect on adiponectin with concurrent rosiglitazone (in words) / serum adiponectin, individual agents (in words): db/db mice; for effect on adiponectin with concurrent rosiglitazone (in words): 100 mg/kg + RSG 3 mg/kg; for serum adiponectin, individual agents (in words): agent alone
Source text: Adiponectin is an glycoprotein secreted from white adipose tissue. Adiponectin improves insulin sensitive in other tissues, e.g. muscle and liver, and is also protective against atherosclerosis. Thiazolidinedione antidiabetic agents such as rosiglitazone or pioglitazone act largely via action at the PPAR-gamma, a nuclear receptor involved in regulation of fuel metabolism. PPAR-gamma agonists enhance adiponectin production by adipose tissue, and this may contribute to their beneficial effects in diabetes and related metabolic disorders.
(§1) • 8. Vehicle (1% hydroxypropylmethylcellulose) • 9. Compound BI 100 mg/kg • 10. Rosiglitazone (RSG) 3 mg/kg • 11. Compound BI 100 mg/kg+RSG 3 mg/kg • 12. Compound CF 100 mg/kg • 13. Compound CF 100 mg/kg+RSG 3 mg/kg • 14. Compound CT 100 mg/kg+RSG 3 mg/kg • 15. […]
(§2) After two weeks, blood samples were collected from the retro-orbital sinus and processed for serum chemistry measurements.

db/db mice [1] = experiment: Serum glucose in db/db mice after two weeks (Example 4); conditions: compound alone 100 mg/kg
Procedure: as §1, §2

db/db mice [2] = experiment: Serum glucose in db/db mice, combinations with rosiglitazone or pioglitazone, 4 weeks (Example 5); conditions: 4 weeks oral once per day
Procedure: Male db/db mice have a defect in the receptor for the appetite-regulating protein leptin and consequently develop hyperphagia, obesity, insulin resistance, hyperglycemia, hypertriglyceridemia. Male db/db mice are an accepted animal model for Type II diabetes. The effect of a range of single daily doses of orally administered Compound BI was assessed in this model, and the efficacy of rosiglitazone alone and in combination with Compound BI was also examined.
Male C57BL/Ksola db/db mice (“db/db mice”) were obtained from Harlan (Indianapolis, Ind.) and allowed to acclimate for a minimum of one week.
Body weights and blood glucose levels were measured and animals were sorted groups of 6-7 mice with equivalent mean body weights in each group. […].
• 12. Vehicle • 13. Compound BI 100 mg/kg/day • 14. Rosiglitazone 3 mg/kg • 15. Rosiglitazone 3 mg/kg+Compound BI 100 mg/kg • 16. Pioglitazone 30 mg/kg • 17. Pioglitazone 30 mg/kg+Compound BI 100 mg/kg • 18. Pioglitazone 100 mg/kg • 19. Pioglitazone 100 mg/kg+Compound BI 100 mg/kg
Drug preparation: Compound BI was suspended in a vehicle comprising 1% aqueous hydroxypropylmethylcellulose, using a tissue homogenizer to minimize particle size and maximize uniformity of the suspension. Pioglitazone and rosiglitazone were suspended in the same vehicle after pulverization of commercial tablets of each of these drugs. Drug concentrations in the dosing suspension for each treatment group were adjusted according to body weights so that a constant volume of 0.4 ml provided appropropriate drug doses in all groups.
Drug Administration: Drugs were administered orally by gavage once per day for 28 days.
Blood sampling: For serum chemistry analysis, nonfasting blood samples (200 microliters) were obtained via the retro-orbital sinus and collected in serum separator tubes at 11 AM on day 28 after initiation of drug administration.

[3] = Cerulenin 30 mg/kg i.p. once per day
[4] = PYY 100 mg/kg i.p. once per day

Row | Compound | food intake (in words) (Male C57B1/6 mice) | Adiponectin ± SD (Adiponectin) | effect on adiponectin with concurrent rosiglitazone (in words) (Adiponectin) | serum adiponectin, individual agents (in words) (Adiponectin) | Glucose ± SD (db/db mice [1]) | also measured
1 | C/C=C/C/C=C/CCC(=O)[C@H]1O[C@H]1C(N)=O [Cerulenin] | failed to have an effect |  |  |  |  | Post-treatment Food Intake (5 Hour) (Male C57B1/6 mice; [3]): 2.45 ± 0.10 grams; Change in Body weight % (Male C57B1/6 mice; [3]): +0.81 ± 0.49%; Change in Body weight (grams ± SEM) (Male C57B1/6 mice; [3]): +0.16 ± 0.10 grams; Post-treatment Body weight (Male C57B1/6 mice; [3]): 21.18 ± 0.66 grams
2 | Cc1cccc(C)c1COc1cccc(CC(=O)O)c1 [Compound CF, 3-(2,6-Dimethylbenzyloxy)phenylacetic acid] |  | 6.5 ± 2.0 micrograms/ml | strongly amplify the effect of concurrent rosiglitazone on adiponectin | did not elevate serum adiponectin levels | 305 ± 75 mg/dL | 
3 | Cc1cccc(C)c1COc1cccc(CC(=O)NO)c1 [Compound CT, N-Hydroxy-2-[3-(2,6-dimethylbenzyloxy)phenyl]acetamide] |  | 5.4 ± 1.5 micrograms/ml | strongly amplify the effect of concurrent rosiglitazone on adiponectin | did not elevate serum adiponectin levels | 235 ± 107 mg/dL | 
4 | CCc1ccc(CCOc2ccc(CC3SC(=O)NC3=O)cc2)nc1 (centres unmarked) [PIO, pioglitazone hydrochloride] |  |  |  |  |  | Serum Glucose (mg/dL) Mean ± SD (db/db mice [2]; PIO 30 mg/kg): 550 ± 74 mg/dL; Serum Glucose (mg/dL) Mean ± SD (db/db mice [2]; PIO 100 mg/kg): 597 ± 228 mg/dL
5 | Peptide YY fragment 3-36 human [PYY] | failed to have an effect |  |  |  |  | Post-treatment Food Intake (5 Hour) (Male C57B1/6 mice; [4]): 2.28 ± 0.25 grams; Change in Body weight % (Male C57B1/6 mice; [4]): −0.96 ± 0.50%; Change in Body weight (grams ± SEM) (Male C57B1/6 mice; [4]): −0.20 ± 0.10 grams; Post-treatment Body weight (Male C57B1/6 mice; [4]): 20.86 ± 0.33 grams
